{"source": "patent US20060057109A1", "about": "(priority 2002, published 2006)", "key": {"[1]": {"tested_on": "9L/P450 cells"}, "[2]": {"tested_on": "9L/P450 cells", "remark": "listed apart in the source"}, "[3]": {"tested_on": "9L/P450 cells", "conditions": "1 × 8 hr 1 mM CPA"}, "[4]": {"tested_on": "9L/P450/p35-9 cells", "protocol": "Cells were then cultured for up to 17 days following the initial drug treatment. […] Cells remaining on the plates at each indicated time point were stained with crystal violet. Data shown are mean+/−half the range for A595 values n=2 samples at each time point.\nGrowth Inhibition Assay: 9L/P450 and 9L/P450-derived cells lines were plated at 1.5×10^5 cells per well in 12 well dishes in 1.5 ml media unless indicated otherwise. […] Cells remaining on the plate at the indicated times were washed twice with cold PBS and then stained with crystal violet solution, as described previously (Schwartz and Waxman, Mol Pharmacol. 60:1268-1279. (2001)). The stain was eluted from the cells and the absorbance read at 595 nm to determine the relative protein content of each sample (Jounaidi et al., Cancer Res. 58:4391-4401 (1998))."}, "[5]": {"tested_on": "9L/LacZ bystander cells", "assay": "Bystander cytotoxicity, colony formation assay", "assay_type": "cell-based, rat", "procedure": "The cytotoxicity conferred by 9L/P450 and 9L/P450/p35-9 cells on 9L/LacZ bystander cells was assayed using one of two protocols. […] Following this drug treatment cell survival was determined for each of the three cell lines (9L/P450, 9L/P450/p35-9 and 9L/LacZ) using a colony formation assay. In the experiment shown in FIGS. 6A and 6B (protocol 1) the 9L/LacZ bystander cells were plated on top of the 9L/P450 or 9L/P450/p35-9 cells, enabling the two cell populations to be in direct cell-cell contact. […]\nBystander Experiments. […] The cells were then grown in drug-free media for an additional 16 hr (i.e., 24 hr from the start of the second drug treatment), at which point the cells were trypsinized, collected, counted and replated at various densities in 6 well plates to allow for the growth of individual colonies, as follows: Drug-free control cells were replated in duplicate at 100, 150 and 250 cells/well. […] LacZ-positive colonies containing≧50 cells were counted. Cells were then re-stained with crystal violet and the total number of colonies was determined. The number of 9L/P450 or 9L/P450/p35-9 colonies on each plate was then calculated by subtracting number of the Lac Z-positive colonies from each sample. The colony efficiency (number of colonies/number of cells seeded) was then calculated for each treatment group. […]"}, "[6]": {"tested_on": "9L/P450/p35-9 cells", "assay": "Colony formation assay after CPA treatment", "assay_type": "cell-based, rat", "conditions": "1 × 8 hr 1 mM CPA", "excerpt": "Relative colony formation activities are shown in parenthesis."}, "[7]": {"conditions": "human, in vivo; cited from earlier work"}, "[8]": {"tested_on": "caspase 8 and caspase 9 in CPA-treated 9L/P450 cells", "assay": "Caspase 8 and caspase 9 activity in extracts of CPA-treated cells", "assay_type": "cell-based, rat", "conditions": "IAP expressed by retroviral transduction, cells treated with 1 mM CPA", "protocol": "9L/P450 cells were infected with retrovirus encoding the IAPs p35 or Survivin. […] Shown in FIG. 1B are the caspase 8 and caspase 9 activities of the individual cell lines (mean+/−half the range for n=2 separate experiments).\nCaspase Activity Measurements: Caspase activities were assayed as described previously (Schwartz and Waxman, Mol Pharmacol. 60:1268-1279. (2001)). […] Floating and attached cells were collected, pooled, dissolved in lysis buffer (10 mM Hepes buffer (pH 7.4) containing 2 mM EDTA, 0.1% CHAPS detergent, 5 mM DTT, 350 ng/ml PMSF, 10 ng/ml pepstatin A, 10 ng/ml aprotinin, and 20 ng/ml leupeptin) and then subjected to three freeze-thaw cycles. Lysates were spun and the supernatant (cell extract) was assayed for caspase 3, 8 and 9 activities by incubation with caspase form-selective substrates: Ac-DEVD-AMC (Biomol; cat # P-411) for caspase 3 (Talanian et al., J Biol. Chem. 272:9677-9682 (1997); Thomberry et al., J Biol. Chem. 272:17907-17911 (1997)), LETD-AFC (BioRad; cat# 170-3186) for caspase 8 and Ac-LEHD-AFC (BioRad; cat# 170-3190) for caspase 9."}, "[9]": {"conditions": "three 8 hr treatments with 1 mM CPA"}}, "note": "Like-named read-outs stand apart in the source and are kept apart here.", "data": [{"molecule": "CCCCS(=N)(=O)CCC(N)C(=O)O", "note": "(stereo not shown) [BSO, buthionine sulfoximine]", "values": [{"measurement": "decrease in the cell's capacity to produce and release 4-OH-CPA into the culture media", "setting": "[1]", "result": 86, "unit": "%"}, {"measurement": "effect of BSO pretreatment on cell growth", "setting": "[2]", "result": "no effect on cell growth"}, {"measurement": "cell survival", "setting": "[2]; BSO pretreatment (50 μM for 24 hr), then 1 mM CPA for 72 hr", "result": 13, "unit": "%"}]}, {"molecule": "O=P1(N(CCCl)CCCl)NCCCO1", "note": "(stereo not shown) [CPA, cyclophosphamide]", "values": [{"measurement": "Relative colony formation activity (in parenthesis)", "setting": "[3]; No Drug = 100", "result": "1.1 ± 0.5"}, {"measurement": "Colonies per 10,000 cells", "setting": "[3]; mean ± SD n=3", "result": 77}, {"measurement": "time to death of cells", "setting": "[4]; 1 mM CPA continuously", "result": 8, "unit": "days"}, {"measurement": "cell killing", "setting": "[4]; single 8 hr CPA treatment", "result": "not sufficient to kill"}, {"measurement": "day by which all cells died", "setting": "[4]; [9]", "result": "≤ 17", "unit": "days"}, {"measurement": "time to death of cells", "setting": "[2]; 1 mM CPA continuously", "result": "3 to 4", "unit": "days"}, {"measurement": "cellular response to CPA in the absence of p35", "setting": "[2]; 1 mM CPA for 72 hr", "result": "cytotoxic response"}, {"measurement": "cell survival", "setting": "[2]; 1 mM CPA for 72 hr, without BSO", "result": 62, "unit": "%"}, {"measurement": "cell killing", "setting": "[2]; single 8 hr CPA treatment", "result": "not sufficient to kill"}, {"measurement": "day by which all cells died", "setting": "[2]; [9]", "result": "6 to 9", "unit": "days"}, {"measurement": "bystander cell killing", "setting": "[5]; co-cultured with 9L/P450/p35-9 cells across a permeable membrane, second 8 hr CPA treatment", "result": "70-80%"}, {"measurement": "bystander cell killing", "setting": "[5]; co-cultured with CPA-pretreated 9L/P450 cells across a permeable membrane, second CPA treatment", "result": "little or no bystander cell killing"}, {"measurement": "Relative colony formation activity (in parenthesis)", "setting": "[6]; No Drug = 100", "result": "2.9 ± 0.9"}, {"measurement": "Colonies per 10,000 cells", "setting": "[6]; mean ± SD n=3", "result": "150 ± 49"}, {"measurement": "half-life", "setting": "[7]", "result": 8, "unit": "h"}]}, {"molecule": "hIAP2: human IAP (inhibitor of apoptosis), myc-tagged cDNA, expressed by retroviral transduction", "values": [{"measurement": "inhibition of caspase activity", "setting": "[8]", "result": "less effective caspase inhibition"}]}]}
